Experimental data taken from US20040097594A1 (priority 1998, published 2004).
Read-outs that look alike come from different tables or passages of the source.

Key:
HIV-1 (strain IIIB) = assay: microbe, parasite or virus in culture; type: cell-based; settings: lower line of each compound's entry, read-out: IC50 (MT-4 cells)
HIV-1 protease = HIV-1 protease (Human immunodeficiency virus type 1 group M subtype B, UniProt P04585); assay: biochemical; settings: HIV-1 protease; upper line of each compound's entry; read-out: Ki (enzyme)
[1] = Human immunodeficiency virus 1, 120 h, MT4 cells infected with HIV-1 strain IIIB, 5 days
[2] = MT4 cells infected with HIV-1 strain IIIB, 5 days

COCOc1ccc(S(=O)(=O)N(C[C@@H](O)[C@H](Cc2ccccc2)NC(=O)OC(C)(C)C)OC2CCCC2)cc1 [Compound 109, tert-butyl N-((1S,2R)-1-benzyl-3-(cyclopentyloxy)[(4-methoxymethoxyphenyl)sulfonyl]amino-2-hydroxypropyl)carbamate]
IC50 (HIV-1 (strain IIIB); [1]): ≥ 100 nM | Ki (HIV-1 protease): 10 to 100 nM

COc1ccc(S(=O)(=O)N(C[C@@H](O)[C@H](Cc2ccccc2)NC(=O)OC(C)(C)C)Oc2ccccc2)cc1 [Compound 17, tert-butyl N-(1S,2R)-1-benzyl-2-hydroxy-3-[[(4-methoxyphenyl)sulfonyl](phenoxy)amino]propylcarbamate]
IC50 (HIV-1 (strain IIIB); [1]): > 1000 nM | Ki (HIV-1 protease): 10 to 100 nM

COc1ccc(S(=O)(=O)N(C[C@@H](O)[C@H](Cc2ccccc2)NC(=O)OCc2cccnc2)OC2CCCC2)cc1 [Compound 25, 3-pyridylmethyl N-((1S,2R)-1-benzyl-3-(cyclopentyloxy)[(4-methoxyphenyl)sulfonyl]amino-2-hydroxypropyl)carbamate]
IC50 (HIV-1 (strain IIIB); [1]): 500 to 1000 nM | Ki (HIV-1 protease): < 1 nM

O=C(N[C@@H](Cc1ccccc1)[C@H](O)CN(OC1CCOCC1)S(=O)(=O)c1ccc2c(c1)OCO2)O[C@H]1CO[C@H]2OCC[C@H]21 [Compound 151, (3R,3aS,6aR)hexahydrofuro[2,3-b]furan-3-yl 3-[(1,3-benzodioxol-5-ylsulfonyl)(tetrahydro-2H-pyran-4-yloxy)amino]-1-benzyl-2-hydroxypropylcarbamate]
IC50 (HIV-1 (strain IIIB); Human immunodeficiency virus 1, IIIB, MT4, 120 h, […]): ≤ 100 nM | Ki (HIV-1 protease): < 1 nM

O=C(N[C@@H](Cc1ccccc1)[C@@H](CN(OC1CCCC1)S(=O)(=O)c1ccc2c(c1)OCO2)OP(=O)(O)O)O[C@H]1CO[C@H]2OCC[C@H]21 [Compound 143, (3R,3aS,6aR)hexahydrofuro[2,3-b]furan-3-yl N-[(1S,2R)-3-[(1,3-benzodioxol-5-ylsulfonyl)(cyclopentyloxy)amino]-1-benzyl-2-(phosphonooxy)propyl]carbamate]
IC50 (HIV-1 (strain IIIB); [1]): ≤ 100 nM | Ki (HIV-1 protease): < 1 nM

O=C(NC(Cc1ccccc1)C(O)CN(OC1CCCC1)S(=O)(=O)c1cccc(NCC(=O)N2CCOCC2)c1)OC1COC2OCCC12 [Compound 87, (3R,3aS,6aR)hexahydrofuro[2,3-b]furan-3-yl N-(1S,2R)-1-benzyl-3-[(cyclopentyloxy)(3-[(2-morpholino-2-oxoethyl)amino]phenylsulfonyl)amino]-2-hydroxypropylcarbamate and (3S,3aR,6aS)hexahydrofuro[2,3-b]furan-3-yl N-(1S,2R)-1-benzyl-3-[(cyclopentyloxy)(3-[(2-morpholino-2-oxoethyl)amino]phenylsulfonyl)amino]-2-hydroxypropylcarbamate]
IC50 (HIV-1 (strain IIIB); [1]): ≤ 100 nM | Ki (HIV-1 protease): < 1 nM

NC(=O)CNc1cccc(S(=O)(=O)N(CC(O)C(Cc2ccccc2)NC(=O)OC2COC3OCCC23)OC2CCCC2)c1 [Compound 85, (3R,3aS,6aR)hexahydrofuro[2,3-b]furan-3-yl N-(1S,2R)-3-[(3-[(2-amino-2-oxoethyl)amino]phenylsulfonyl)(cyclopentyloxy)amino]-1-benzyl-2-hydroxypropylcarbamate and (3S,3aR,6aS)hexahydrofuro[2,3-b]furan-3-yl N-(1S,2R)-3-[(3[(2-amino-2-oxoethyl)amino]phenylsulfonyl) (cyclopentyloxy)amino]-1-benzyl-2-hydroxypropylcarbamate]
Ki (HIV-1 protease): < 1 nM

CC(C)ON(C[C@@H](O)[C@H](Cc1ccccc1)NC(=O)O[C@H]1CCOC1)S(=O)(=O)c1ccc2[nH]c(=O)[nH]c2c1 [Compound 62, (3S)tetrahydro-3-furanyl N-((1S,2R)-1-benzyl-2-hydroxy-3-isopropoxy[(2-oxo-2,3-dihydro-1H-1,3-benzimidazol-5-yl)sulfonyl]aminopropyl)carbamate]
IC50 (HIV-1 (strain IIIB); [1]): > 1000 nM | Ki (HIV-1 protease): 1 to 10 nM

O=C(N[C@@H](Cc1ccccc1)[C@H](O)CN(OC1CCCC1)S(=O)(=O)c1cccc(O)c1)O[C@H]1CO[C@H]2OCC[C@H]21 [Compound 44, (3R,3aS,6aR)hexahydrofuro[2,3-b]furan-3-yl N-((1S,2R)-1-benzyl-3-(cyclopentyloxy)[(3-hydroxyphenyl)sulfonyl]amino-2-hydroxypropyl)carbamate]
IC50 (HIV-1 (strain IIIB); [1]): ≤ 100 nM | Ki (HIV-1 protease): < 1 nM

COc1cc(C(=O)Nc2nc3cc(S(=O)(=O)N(C[C@@H](O)[C@H](Cc4ccccc4)NC(=O)OC(C)(C)C)OC4CCCC4)ccc3[nH]2)cc(OC)c1OC [Compound 12, Tert-butyl N-(1S,2R)-1-benzyl-3-[(cyclopentyloxy)(2-[(3,4,5-trimethoxyphenyl-carbonyl)amino]-1H-benzimidazol-5-ylsulfonyl)amino]-2-hydroxypropylcarbamate]
Ki (HIV-1 protease): > 10 nM

COC(=O)CC(=O)Nc1nc2cc(S(=O)(=O)N(C[C@@H](O)[C@H](Cc3ccccc3)NC(=O)OC(C)(C)C)OC3CCCC3)ccc2[nH]1 [Compound 13, Tert-butyl N-(1S,2R)-1-benzyl-3-[(cyclopentyloxy)(2-[(methyl3-oxopropionate)amino]-1H-benzimidazol-5-ylsulfonyl)amino]-2-hydroxypropylcarbamate]
Ki (HIV-1 protease): 10 to 100 nM

O=C(NC(Cc1ccccc1)C(O)CN(OC1CCCC1)S(=O)(=O)c1ccc2[nH]nnc2c1)OC1COC2OCCC12 [Compound 91, (3aS,6aR)Hexahydrofuro[2,3-b]furan-3-yl N-(1S,2R)-1-benzyl-3-[(cyclopentyloxy)(benzotriazole-5-ylsulfonyl)amino]-2-hydroxypropylcarbamate]
Ki (HIV-1 protease): < 1 nM

CC(=O)NCCNc1cccc(S(=O)(=O)N(CC(O)C(Cc2ccccc2)NC(=O)OC2COC3OCCC23)OC2CCCC2)c1 [Compound 84, (3R,3aS,6aR)hexahydrofuro[2,3-b]furan-3-yl N-(1S,2R)-3-[[(3-[2-(acetylamino)ethyl]aminophenyl)sulfonyl](cyclopentyloxy)amino]-1-benzyl-2-hydroxypropylcarbamate and (3S,3aR,6aS)hexahydrofuro[2,3-b]furan-3-yl N-(1S,2R)-3-[[(3-[2-(acetylamino)ethyl]aminophenyl)sulfonyl](cyclopentyloxy)amino]-1-benzyl-2-hydroxypropylcarbamate]
Ki (HIV-1 protease): < 1 nM

O=C(N[C@@H](Cc1ccccc1)[C@H](O)CN(OC1CCCC1)S(=O)(=O)c1ccc(OCCN2CCOCC2)cc1)O[C@H]1CO[C@H]2OCC[C@H]21 [Compound 98, (3R,3aS,6aR)hexahydrofuro[2,3-b]furan-3-yl N-[(1S,2R)-1-benzyl-3-((cyclopentyloxy)[4-(2-morpholinoethoxy)phenyl]sulfonylamino)-2-hydroxypropyl]carbamate]
Ki (HIV-1 protease): < 1 nM

CN(C)c1cccc(S(=O)(=O)N(CC(O)C(Cc2ccccc2)NC(=O)OC2COC3OCCC23)OC2CCCC2)c1 [Compound 43, (3R,3aS,6aR)hexahydrofuro[2,3-b]furan-3-yl N-(1S,2R)-3-[[(3-N,N-dimethylaminophenyl)sulfonyl)(cyclopentyloxy)amino)-1-benzyl-2-hydroxypropylcarbamate]
Ki (HIV-1 protease): < 1 nM

O=C(N[C@@H](Cc1ccccc1)[C@H](O)CN(OC1CCCC1)S(=O)(=O)c1ccc(OCCO)cc1)O[C@H]1CO[C@H]2OCC[C@H]21 [Compound 42, (3R,3aS,6aR)hexahydrofuro[2,3-b]furan-3-yl N-[(1S,2R)-1-benzyl-3-((cyclopentyloxy)[4-(2-hydroxyethoxy)phenyl]sulfonylamino)-2-hydroxypropyl]carbamate]
Ki (HIV-1 protease): < 1 nM

Nc1ccc(S(=O)(=O)N(CC(O)C(Cc2ccccc2)NC(=O)OC2COC3OCCC23)OC2CCCC2)cc1 [Example 172, (3S,3aR,6aS)hexahydrofuro[2,3-b]furan-3-yl N-(1S,2R)-3-[[(4-aminophenyl)sulfonyl](cyclopentyloxy)amino]-1-benzyl-2-hydroxypropyl carbamate]
IC50 (HIV-1 (strain IIIB); [2]): ≤ 100 nM

CC(C)ON(C[C@@H](O)[C@H](Cc1ccccc1)NC(=O)O[C@H]1CCOC1)S(=O)(=O)c1ccc2[nH]cnc2c1 [Compound 63, (3S)tetrahydro-3-furanyl N-(1S,2R)-3-[(1H-1,3-benzimidazol-5-ylsulfonyl)(isopropoxy)amino]-1-benzyl-2-hydroxypropylcarbamate]
Ki (HIV-1 protease): 1 to 10 nM

COc1ccc(S(=O)(=O)N(C[C@@H](O)[C@H](Cc2ccccc2)NC(=O)OC(C)(C)C)OC(C)CCC#N)cc1 (stereo partly shown) [Compound 152, tert-butyl 1-benzyl-3-{(3-cyano-1-methylpropoxy)[(4-methoxyphenyl)sulfonyl]amino}-2-hydroxypropylcarbamate]
IC50 (HIV-1 (strain IIIB); [2]): 500 to 1000 nM

CS(=O)(=O)Nc1nc2cc(S(=O)(=O)N(C[C@@H](O)[C@H](Cc3ccccc3)NC(=O)OC3COCOC3)OC3CCCC3)ccc2[nH]1 [Compound 132, 1,3-Dioxan-5-yl-N-((1S,2R)-1-benzyl-3-(cyclopentyloxy)(2-[(methylsulfonyl)amino)benzimidazol-5-ylsulfonyl)amino-2-hydroxypropyl)carbamate]
IC50 (HIV-1 (strain IIIB); [2]): ≤ 100 nM

O=C(N[C@@H](Cc1ccccc1)[C@H](O)CN(OC1CCCC1)S(=O)(=O)c1ccc2[nH]nnc2c1)OC1COCOC1 [Compound 92, 1,3-Dioxan-5-yl N-(1S,2R)-1-benzyl-3-[(cyclopentyloxy)(benzotriazole-5-ylsulfonyl)amino]-2-hydroxypropylcarbamate]
Ki (HIV-1 protease): < 1 nM

O=C(N[C@@H](Cc1ccccc1)[C@H](O)CN(OC1CCCC1)S(=O)(=O)c1cccc(OCCN2CCOCC2)c1)O[C@H]1CO[C@H]2OCC[C@H]21 [Compound 99, (3R,3aS,6aR)hexahydrofuro[2,3-b]furan-3-yl N-[(1S, 2R)-1-benzyl-3-((cyclopentyloxy)[3-(2-morpholinoethoxy)phenyl]sulfonylamino)-2-hydroxypropyl]carbamate]
Ki (HIV-1 protease): < 1 nM

O=C(N[C@@H](Cc1ccccc1)[C@H](O)CN(OC1CCCC1)S(=O)(=O)c1ccc(O)cc1)O[C@H]1CO[C@H]2OCC[C@H]21 [Compound 41, (3R,3aS,6aR)hexahydrofuro[2,3-b]furan-3-yl N-((1S,2R)-1-benzyl-3-(cyclopentyloxy)[(4-hydroxyphenyl)sulfonyl]amino-2-hydroxypropyl)carbamate]
IC50 (HIV-1 (strain IIIB); […]): ≤ 100 nM
